Positions count from the first letter of the chain named.
Columns and labels:
DgoR (WT DgoR-6XHis) [1] = molecular target: T1, DgoR (WT DgoR-6XHis) (Escherichia coli, UniProt P31460); assay: label-free microscale thermophoresis; type: binding
T1 sequence (P31460 1-229): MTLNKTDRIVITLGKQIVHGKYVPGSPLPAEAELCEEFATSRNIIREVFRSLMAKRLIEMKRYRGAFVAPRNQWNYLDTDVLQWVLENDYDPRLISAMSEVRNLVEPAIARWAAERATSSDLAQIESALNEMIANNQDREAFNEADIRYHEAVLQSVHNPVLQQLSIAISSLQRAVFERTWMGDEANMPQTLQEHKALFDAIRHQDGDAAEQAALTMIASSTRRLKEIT

DgoR (WT DgoR-6XHis) [2] = molecular target: T2, DgoR (WT DgoR-6XHis) (Escherichia coli, UniProt P31460, S171L); assay: label-free microscale thermophoresis; type: binding
T2 sequence (P31460 1-229 S171L): T1 sequence (P31460 1-229) with S171L

DgoR (WT DgoR-6XHis) [3] = molecular target: T3, DgoR (WT DgoR-6XHis) (Escherichia coli, UniProt P31460, A97V); assay: label-free microscale thermophoresis; type: binding
T3 sequence (P31460 1-229 A97V): T1 sequence (P31460 1-229) with A97V

DgoR (WT DgoR-6XHis) [4] = molecular target: T4, DgoR (WT DgoR-6XHis) (Escherichia coli, UniProt P31460, M188I); assay: label-free microscale thermophoresis; type: binding
T4 sequence (P31460 1-229 M188I): T1 sequence (P31460 1-229) with M188I

[5] = molecular target: DgoR-6XHis (wild-type DgoR, transcriptional repressor of D-galactonate metabolism in Escherichia coli) (Escherichia coli) (UniProt P31460); assay: SEC

For `O=C(O)[C@H](O)[C@@H](O)[C@@H](O)[C@H](O)CO` [D-galactonate], the Kd (DgoR (WT DgoR-6XHis) [1]) was 8.4 ± 1.3 µM, the Kd (DgoR (WT DgoR-6XHis) [2]) was 20.1 ± 0.6 µM and the Kd (DgoR (WT DgoR-6XHis) [3]) was 3.3 ± 0.3 µM. The Kd (DgoR (WT DgoR-6XHis) [4]) was 11.3 ± 0.9 µM.
In the case of “DgoR-6XHis (wild-type DgoR, transcriptional repressor of D-galactonate metabolism in Escherichia coli) (from UniProt P31460 1-229) (natural protein)”, the stoichiometry N [5] is reported as 2.

Source: paper PMC11705089 (Nucleic Acids Research, 2025)
